This is an account of results in patent publication US11052089B2, “Methods for inhibiting alpha-v beta-3 expression on cancer stem cells and inhibiting progression to a cancer stem cell phenotype” (The Regents of the University of California, priority 2014, dated 2021).

Assay type in all cases: cell-based
The test system of data set [1] is integrin β3 expression in HCC827 lung cancer cells. Briefly: Stress induced integrin β3 and stem cell gene expression, gels (FIG. 12). The following applies: nutrient deprivation (without serum), 0.1 uM. An excerpt: FIGS. 12A and 12B illustrate data showing the knockdown of P300 histone acetyl transferase (HAT), a known enzyme that targets H3K27ac, in HCC827 lung cancer cells. Histone acetyl transferase (acetyl p300) activity is increased during nutrient deprivation (without serum) leading to integrin β3 expression, which prevents stress-induced expression of integrin β3 and stem cell genes. Increase in histone acetyltransferase (HAT) p300 activity leads to upregulation of integrin β3. Loss of p300 histone acetyltransferase activity prevents the upregulation of integrin β3. Similar to chemical inhibition of HAT activity with anacardic acid at 0.1 uM concentration, a genetic approach was used to knockdown p300 histone acetyl transferase (HAT), a known enzyme that targets H3K27ac prevents expression of integrin β3 and stem cell genes.

The subject of a further data set is ITGB3. Nature of the data set: ITGB3 induction in the presence of HAT inhibitor (FIG. 2). From the text:
FIG. 2 graphically illustrates data showing that ITGB3 induction is suppressed in the presence of histone acetyltransferase (HAT) inhibitor anacardic acid.

Data set [2] deals with lung cancer cells (HCC827). Nature of the data set: 14 day assay for cell surface induction of integrin β3 by nutrient deprivation, cell sorting (FIG. 13, FIG. 14). The following applies: HCC827, nutrient deprivation (no serum).
The test system of data set [3] is ITGB3, Nanog and OCT4 induction. Briefly: mRNA induction of ITGB3, Nanog, OCT4 with GSKJ-4 (FIG. 3, FIG. 11). The following applies: relative to no serum. The protocol: (§1) FIG. 3A, FIG. 3B, FIG. 3C and FIG. 3D graphically illustrate data showing that treatment with histone modification inhibitor(s) suppresses the stress induced drug resistant phenotype: FIG. 3A illustrates fold expression mRNA relative to serum after ITGB3 induction of control vehicle, 0.10 μM GSKJ4, and 0.25 μM GSKJ4; FIG. 3B illustrates fold expression mRNA relative to serum after Nanog induction of control vehicle, 0.10 μM GSKJ4, and 0.25 μM GSKJ4; FIG. 3C illustrates nM Erlotinib under conditions comprising serum, no serum and no serum and GSKJ4; and FIG. 3D illustrates fold expression mRNA relative to serum after ITGB3 induction with serum, no serum and no serum and GSKJ4.
FIG. 11A schematically illustrates, and FIG. 11B, FIG. 11C, FIG. 11D and FIG. 11E graphically illustrate that GSKJ-4, which targets histone demethylase JMJD3, suppresses β3 expression as well as pluripotent genes Nanog and OCT4, with the conclusion that GSKJ-4 suppresses ITGB3, Nanog and OCT4 induction by inhibiting JMJD3-targeted H3K27me3 demethylation; and FIG. 11B, FIG. 11C, FIG. 11D and FIG. 11E graphically illustrate fold induction mRNA relative to no serum as a function of GSKJ-4 suppression of ITGB3, Nanog and OCT4 induction, with FIG. 11B, FIG. 11C, FIG. 11D and FIG. 11E illustrating levels of ITGB3, Nanog, OCT4 and SOX2, respectively.

For data set [4], the system named is stress induced drug resistant phenotype. Briefly: Stress induced drug resistant phenotype, Erlotinib (FIG. 3C). The following applies: serum, no serum, no serum and GSKJ4. The protocol: as §1

The structures appear in SMILES notation.

As for `C=CC/C=C\C/C=C\CCCCCCCc1cccc(O)c1C(=O)O` [anacardic acid, 2-hydroxy-6-[(8Z,11Z)-pentadeca-8,11,14-trienyl]benzoic acid], in data set [1], the “downstream stem cell genes expression” value is “prevents” and the “stress induced integrin β3 expression” value was “prevents”. Also, in the data set with ITGB3, the ITGB3 induction entry was “suppressed”.

`CCOC(=O)CCNc1cc(N2CCc3ccccc3CC2)nc(-c2ccccn2)n1` [GSKJ4]: in data set [2], the “expansion of integrin β3 expressing stem population” value is on record as “prevents the expansion”, the “formation of the heterodimeric αVβ3 cell surface expression” value was “prevents” and the “induction of integrin β3 gene expression” value is “prevents the induction”. Further, in data set [3], the “ITGB3 (β3) induction, fold induction mRNA” value is listed as “suppresses”; the “Nanog induction, fold induction mRNA” value is recorded as “suppresses”; the “OCT4 induction, fold induction mRNA” value was “suppresses”. For the same compound, the “stress induced drug resistant phenotype” value in data set [4] is recorded as “suppresses”.
